pEC50: −log10 of the molar value. A value given as a limit tells only on which side of the number the result lay.

Usually pEC50 stands for the EC50 on a negative log10 scale, so that one unit is a factor of ten.

This experiment addresses T1, human farnesoid X receptor (Homo sapiens, UniProt Q96RI1).
T1 construct: CMX-farnesoid X receptor (full length human farnesoid X receptor); expressed in transfected cells; host or cells: CV-1 African Green Monkey Kidney cells
T1 sequence (Q96RI1 1-472 isoform Q96RI1-2): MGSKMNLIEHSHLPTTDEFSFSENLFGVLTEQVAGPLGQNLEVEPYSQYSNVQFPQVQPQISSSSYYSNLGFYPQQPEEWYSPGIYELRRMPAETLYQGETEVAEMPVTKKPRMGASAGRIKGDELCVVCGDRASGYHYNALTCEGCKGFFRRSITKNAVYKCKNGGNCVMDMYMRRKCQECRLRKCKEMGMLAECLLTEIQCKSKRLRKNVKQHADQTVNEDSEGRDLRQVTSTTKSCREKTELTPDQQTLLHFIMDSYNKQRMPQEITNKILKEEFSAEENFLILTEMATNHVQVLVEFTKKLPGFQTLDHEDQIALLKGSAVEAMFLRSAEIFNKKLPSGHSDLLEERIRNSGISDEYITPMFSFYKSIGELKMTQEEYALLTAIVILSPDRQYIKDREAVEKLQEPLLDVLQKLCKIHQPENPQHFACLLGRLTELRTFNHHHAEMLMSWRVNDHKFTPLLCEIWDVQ
T1 sequence (P19793 1-462 partner): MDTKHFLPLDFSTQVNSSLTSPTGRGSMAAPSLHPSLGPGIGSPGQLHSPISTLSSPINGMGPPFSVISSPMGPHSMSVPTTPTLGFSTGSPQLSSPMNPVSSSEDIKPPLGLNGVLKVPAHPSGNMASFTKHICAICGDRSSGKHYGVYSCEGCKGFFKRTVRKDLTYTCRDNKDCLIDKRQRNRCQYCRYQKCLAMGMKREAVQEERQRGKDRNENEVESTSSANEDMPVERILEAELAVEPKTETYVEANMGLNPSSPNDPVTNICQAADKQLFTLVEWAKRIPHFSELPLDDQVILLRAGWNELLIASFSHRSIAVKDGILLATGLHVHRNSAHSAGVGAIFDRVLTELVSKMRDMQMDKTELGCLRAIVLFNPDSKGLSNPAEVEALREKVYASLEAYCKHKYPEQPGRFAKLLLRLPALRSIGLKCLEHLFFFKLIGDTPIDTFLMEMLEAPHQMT
The experiment is described as follows: FXR in vitro assays (farnesoid X receptor/ECREx7 co-transfection assay, TR-FRET assay), Table I. In kind it is cell-based. The following applies: for pEC50: agonist activity, one or more of the in vitro assays, read-out: EC50; for Emax: read-out: % Efficacy. As to the method: The basic co-transfection protocol for measuring the farnesoid X receptor activity is as follows. CV-1 African Green Monkey Kidney cells were plated 24 hours before transfection to achieve approximately 70-80 percent confluency. […] The assay was allowed to continue for an additional 18-20 hours, after which the cells were lysed, with lysis buffer (1% triton X 100, 10% glycerol, 5 mM Dithiothreitol, 1 mM EGTA, 25 mM Tricine, pH 7.8) and the luciferase activity measured in the presence of Luciferase assay buffer (0.73 mM ATP, 22.3 mm Tricine, 0.11 mM EGTA, 0.55 mM Luciferin, 0.15 mM Coenzyme A, 0.5 mM HEPES, 10 mM Magnesium sulphatc) on a standard luminometer plate reader (PE Biosystems, NorthStar Reader), using recommended operating instructions and conditions.
The dose response curves are generated from an 8 point curve with concentrations differing by ½ LOG units. Each point represents the average of 4 wells of data from a 384 well plate. A curve for the data is generated by using the equation:
Y=Bottom+(Top−Bottom)/(1+10̂((Log EC50−X)*HillSlope))
The EC50/IC50 is therefore defined as the concentration at which an agonist or antagonist elicits a response that is half way between the Top (maximum) and Bottom (baseline) values. The EC50/IC50 values represented are the averages of at least 3 independent experiments.
Background: Time-resolved FRET reads energy transfer from a long-lived donor to a nearby acceptor.

With `CC(C)OC(=O)C1=CN(C(=O)c2ccc(F)c(F)c2)CC(C)(C)c2c1[nH]c1cc(OCCCN(C)C)ccc21` [Example 99, 1-methylethyl 3-[(3,4-difluorophenyl)carbonyl]-8-{[3-(dimethylamino)propyl]oxy}-1,1-dimethyl-1,2,3,6-tetrahydroazepino[4,5-b]indole-5-carboxylate], the pEC50 is 6.00 to 7.00 and the Emax lay within 40 to 60%. The corresponding values for `CC(C)OC(=O)C1=CN(C(=O)C23C[C@H]4C[C@@H](C2)C[C@@H](C3)C4)CC(C)(C)c2c1[nH]c1ccccc21` [Example 24, 1-methylethyl 1,1-dimethyl-3-[(3s,5s,7s)-tricyclo[3.3.1.1~3,7~]dec-1-ylcarbonyl]-1,2,3,6-tetrahydroazepino [4,5-b]indole-5-carboxylate] are 7.00 to 8.00 and greater than 100%. The matching figures for `CCN(CC)Cc1cccc(C(=O)N2C=C(C(=O)OC(C)C)c3[nH]c4ccccc4c3C(C)(C)C2)c1` [Example 114, 1-methylethyl 3-({3-[(diethylamino)methyl]phenyl}carbonyl)-1,1-dimethyl-1,2,3,6-tetrahydroazepino[4,5-b]indole-5-carboxylate]: 6.00 to 7.00 and greater than 100%. As for `CC(C)OC(=O)C1=CN(C(=O)c2cccc(CN3CCCC3)c2)CC(C)(C)c2c1[nH]c1ccccc21` [Example 117, 1-methylethyl 1,1-dimethyl-3-{[3-(pyrrolidin-1-ylmethyl)phenyl]carbonyl}-1,2,3,6-tetrahydroazepino[4,5-b]indole-5-carboxylate], the Emax is greater than 100%. Regarding `CC(C)OC(=O)C1=CN(C(=O)c2ccccc2)CC(C)(C)c2c1[nH]c1ccccc21` [Example 62, 1-methylethyl 1,1-dimethyl-3-(phenylcarbonyl)-1,2,3,6-tetrahydroazepino[4,5-b]indole-5-carboxylate], the pEC50 is 8.00 to 9.00 and the Emax is greater than 100%. With `CC1(C)OCC(COC(=O)C2=CN(C(=O)c3ccc(F)c(F)c3)CC(C)(C)c3c2[nH]c2ccccc32)O1` (stereo not drawn) [Example 122, (2,2-dimethyl-1,3-dioxolan-4-yl)methyl 3-[(3,4-difluorophenyl)carbonyl]-1,1-dimethyl-1,2,3,6-tetrahydroazepino[4,5-b]indole-5-carboxylate], the pEC50 is 6.00 to 7.00 and the Emax was greater than 100%. The corresponding values for `CC(C)OC(=O)C1=CN(C(=O)c2ccc3c(c2)nnn3C)CC(C)(C)c2c1[nH]c1ccccc21` [Example 157, 1-methylethyl 1,1-dimethyl-3-[(1-methyl-1H-1,2,3-benzotriazol-5-yl)carbonyl]-1,2,3,6-tetrahydroazepino[4,5-b]indole-5-carboxylate] are 7.00 to 8.00 and greater than 100%. The corresponding values for `CC(C)OC(=O)C1=CN(C(=O)NC2CCCCCC2)CC(C)(C)c2c1[nH]c1ccccc21` [Example 46, 1-methylethyl 3-[(cycloheptylamino)carbonyl]-1,1-dimethyl-1,2,3,6-tetrahydroazepino[4,5-b]indole-5-carboxylate] are 7.00 to 8.00 and greater than 100%. In the case of `CC(C)OC(=O)C1=CN(C(=O)c2ccc(F)cc2Cl)CC(C)(C)c2c1[nH]c1ccccc21` [Example 111, 1-methylethyl 3-[(2-chloro-4-fluorophenyl)carbonyl]-1,1-dimethyl-1,2,3,6-tetrahydroazepino[4,5-b]indole-5-carboxylate], the pEC50 is 7.00 to 8.00 and the Emax is greater than 100%. The matching figures for `CC(C)OC(=O)C1=CN(C(=O)c2cccc(F)c2F)CC(C)(C)c2c1[nH]c1ccccc21` [Example 74, 1-methylethyl 3-[(2,3-difluorophenyl)carbonyl]-1,1-dimethyl-1,2,3,6-tetrahydroazepino[4,5-b]indole-5-carboxylate]: 8.00 to 9.00 and greater than 100%. The matching figures for `CC(C)OC(=O)C1=CN(C(=O)N2CCCCCC2)CC(C)(C)c2c1[nH]c1ccccc21` [Example 40, 1-methylethyl 3-(azepan-1-ylcarbonyl)-1,1-dimethyl-1,2,3,6-tetrahydroazepino [4,5-b]indole-5-carboxylate]: 8.00 to 9.00 and greater than 100%. As to `CC1(C)CN(C(=O)c2ccc(F)c(F)c2)C=C(C(=O)OCC(O)CO)c2[nH]c3ccccc3c21` (stereo not drawn) [Example 124, 2,3-dihydroxypropyl 3-[(3,4-difluorophenyl)carbonyl]-1,1-dimethyl-1,2,3,6-tetrahydroazepino[4,5-b]indole-5-carboxylate], the pEC50 was 7.00 to 8.00 and the Emax is greater than 100%.

As for `CC1(C)CN(C(=O)c2ccc(F)c(F)c2)C=C(C(=O)NCC(O)CO)c2[nH]c3ccccc3c21` (stereo not drawn) [Example 162, 3-[(3,4-difluorophenyl)carbonyl]-N-(2,3-dihydroxypropyl)-1,1-dimethyl-1,2,3,6-tetrahydroazepino[4,5-b]indole-5-carboxamide], the pEC50 is less than 5.00. `COc1ccccc1C(=O)N1C=C(C(=O)OC(C)C)c2[nH]c3ccccc3c2C(C)(C)C1` [Example 69, 1-methylethyl 1,1-dimethyl-3-{[2-(methyloxy)phenyl]carbonyl}-1,2,3,6-tetrahydroazepino[4,5-b]indole-5-carboxylate]: the negative logarithm of the EC50 (pEC50) was 7.00 to 8.00 and the Emax was greater than 100%. The matching figures for `CC(C)OC(=O)C1=CN(C(=O)c2cccc(CN3CCN(C(=O)Nc4ccccc4)CC3)c2)CC(C)(C)c2c1[nH]c1ccccc21` [Example 184]: 7.00 to 8.00 and greater than 100%.

For the compound `CC(C)OC(=O)C1=CN(C(=O)NCc2ccccc2)CC(C)(C)c2c1[nH]c1ccccc21` [Example 49, 1-methylethyl 1,1-dimethyl-3-{[(phenylmethyl)amino]carbonyl}-1,2,3,6-tetrahydroazepino[4,5-b]indole-5-carboxylate], the pEC50 was 5.00 to 6.00 and the Emax lay in the range of 80 to 100%.

Regarding `CC(C)OC(=O)C1=CN(C(=O)c2ccc(F)c(F)c2F)CC(C)(C)c2c1[nH]c1ccccc21` [Example 77, 1-methylethyl 1,1-dimethyl-3-[(2,3,4-trifluorophenyl)carbonyl]-1,2,3,6-tetrahydroazepino[4,5-b]indole-5-carboxylate], the pEC50 is 8.00 to 9.00 and the Emax is greater than 100%.

For the compound `CC(C)OC(=O)C1=CN(C(=O)CCCN(C)C)CC(C)(C)c2c1[nH]c1ccccc21` [Example 20], the pEC50 is 5.00 to 6.00. Consider `CC(C)OC(=O)C1=CN(C(=O)c2ccc(F)c(F)c2)CC(C)(C)c2c1[nH]c1ccc(OCc3ccccc3)cc21` [Example 115, 1-methylethyl 3-[(3,4-difluorophenyl)carbonyl]-1,1-dimethyl-9-[(phenylmethyl)oxy]-1,2,3,6-tetrahydroazepino[4,5-b]indole-5-carboxylate], for which the pEC50 was 7.00 to 8.00 and the Emax was greater than 100%. The corresponding values for `CCS(=O)(=O)N1CCN(Cc2cccc(C(=O)N3C=C(C(=O)OC(C)C)c4[nH]c5ccccc5c4C(C)(C)C3)c2)CC1` [Example 172, 1-methylethyl 3-[(3-{[4-(ethylsulfonyl)piperazin-1-yl]methyl}phenyl)carbonyl]-1,1-dimethyl-1,2,3,6-tetrahydroazepino[4,5-b]indole-5-carboxylate] are 6.00 to 7.00 and greater than 100%. The corresponding values for `CC(C)OC(=O)C1=CN(C(=O)N2CCCN(Cc3ccccc3)CC2)CC(C)(C)c2c1[nH]c1ccccc21` [Example 59, 1-methylethyl 1,1-dimethyl-3-{[4-(phenylmethyl)-1,4-diazepan-1-yl]carbonyl}-1,2,3,6-tetrahydroazepino [4,5-b]indole-5-carboxylate] are 7.00 to 8.00 and greater than 100%.

For the origin of these results see patent US20090203577A1 (EXELIXIS, INC., priority 2005, published 2009).
